Assay results: US20230174581A1, “PROCESSES AND AGENTS FOR GLAUCOMA” (AUFBAU MEDICAL INNOVATIONS LIMITED, priority 2020, published 2023)
Counter-ions that a name gives are not always drawn. Where a SMILES comes first, the peptide text is derived from it. Bridges are numbered along the chain shown (N, C = ends). [ ]: non-standard residue; d: D form. The star is where a group is joined. Octanoyl(6-Me) = CCC(C)CCCCC(=O)*; Dab = NCC[CH](N)C(=O)O

Legend:
[1] = Relative IOP versus placebo in bovine vitreous humor (BVH) glaucoma model, microfluidic chip device
Procedure: Bovine vitreous after homogenization was used to model human disease because it mimicked elevated IOP in humans.
A solution of the agent compound was prepared by weighing out the compound in a microcentrifuge tube and dissolving the solid material in lx PBS buffer at pH 7.2. For a compound that was less soluble in water, a stock solution was prepared in ethanol or DMSO, and then diluted ten-fold to achieve the final concentration with a 10% ethanol or DMSO vehicle. Heat (37° C.) and vortex mixing were applied to the solution of the compound to facilitate dissolution.
To determine the effect of the compound on intraocular pressure (IOP), the compound was tested in bovine vitreous humor (BVH) glaucoma model in the microfluidic chip device.
A solution of 25% homogenized bovine vitreous humor (BVH) was prepared by diluting 100% homogenized BVH with PBS buffer. 50 uL BVH was aliquoted into 0.5 mL PCR tubes. 50 uL of the solution of the compound was added to the BVH, bringing the BVH total concentration to 12.5%. The sample was briefly vortexed and then incubated at 37° C. overnight. For a control experiment, 50 uL of either PBS buffer or PBS with 10% ethanol or DMSO were prepared and incubated with 25% BVH in the same conditions.
The test BVH solution was introduced into the reservoir of the device. A fluidic probe was attached to the inlet of the microfluidic chip and a flow rate of 2ul/min was established with PBS as the source fluid. Once fluid began exiting from the outlet of the chip and a steady flow of 2 ul/min was achieved, the flow rate and the pressure change within the microfluidic chip were recorded. Baseline flow rate and pressure readings were recorded for 5 minutes, after which 7 ul of the test BVH solution was injected into the chip through a sample injector. Recording of the flow rate and pressure change was continued for 50 additional minutes after the sample injection. Recording was stopped after 55 minutes. The relative change in chip pressure for the entire course of the experiment was plotted on a graph.

[2] = Dose-response of IOP reduction in bovine vitreous humor (BVH) glaucoma model, microfluidic chip device; settings: 12.5% BVH, incubated at 37° C. for 1 hour; 7 ul injected; read-out: EC50 for treatment of glaucoma in a bovine vitreous model (IOP reduction)
Procedure: Bovine vitreous after homogenization was used to model human disease because it mimicked elevated IOP in humans. […] Once it was added to BVH, the final water concentration was 0.5%. […] Once added to BVH, the final DMSO concentration was 0.5%. […] The pellet was resuspended with PBS and concentrated by 2.5X fold. For treatment of BVH with compound, 25 ul of enriched BVH was added to 25 ul of Compound and incubated for 1 hour in a thermocycler at 37° C., then 5 ul of 5 mM CFSE was added, and the sample incubated in a thermocycler at 37° C. for 30 minutes. EC50 was estimated by plotting the logarithmic functions of the micromolar concentration of the drug in the x axis against the percent of maximal response in the y axis. The maximal response was taken as the value of the response for the highest drug concentration. The response was calculated by taking the absolute difference between the control and test value for each concentration. The compound colistin sulfate was tested in bovine vitreous humor (BVH) glaucoma model in a microfluidic chip device. A solution of 25% homogenized BVH in PBS buffer was prepared and diluted with an equal amount of a solution of the compound, so that the total BVH concentration was 12.5%. The sample was vortexed and incubated at 37° C. for 1 hour. […] The test compound-BVH solution was introduced into the reservoir of the microfluidic chip device and flow rate and pressure change were recorded. Various concentrations of the compound were tested for effects on the treatment of bovine vitreous humor. 7 ul of each test solution was injected into the microfluidic chip through a sample injector. Recording of the flow rate and pressure change was continued for 50 additional minutes after the sample injection. The relative change in chip pressure for the entire course of the experiment was obtained. […] The EC50 value was taken as the point on the x-axis at which the logarithmic function of the micromolar concentration of the compound produced half-maximal response. The logarithmic function of the micromolar concentration of the drug was plotted on the x axis against the percent of maximal response on the y axis. Maximal response was obtained by taking the value of the response for the highest drug concentration. The response was calculated by taking the absolute difference between the control and test value for each concentration.

[3] = Relative IOP in microfluidic device, human glaucoma model (POAG aqueous humor); settings: pre-incubated at 37° C. for 24 hours, placebo buffered saline
Procedure: The agent was tested by controlling flow and measuring relative IOP using in a device of this invention. The agent was compared against placebo (buffered saline) by preparing each in aqueous humor from a patient with primary open angle glaucoma and pre-incubating at 37° C. for 24 hours. The timepoint of injection into the device is denoted by an arrow and the letter “a.” Referring to FIG. 25, the IOP for placebo (dashed line) increased greatly after injection of the placebo sample. The IOP rose to a maximum pressure of about 40 mm Hg. To the contrary, the IOP after injection of the agent colistin sulfate in human aqueous humor (solid line) was markedly lower than for placebo, up to about 40% lower, and the difference was sustained.
Example 1. Isolation of extracellular matrix bodies in a microfluidic device. […] The microfluidic channel flow rate was held constant at […] per minute, and the baseline system pressure was measured using an external pressure sensor. The human aqueous humor sample was injected at timepoint denoted by an arrow and the letter “a.” The pressure steadily rises to a maximum of about 41 mm Hg at 27 minutes. […] The protein content in the aqueous humor was labeled with a fluorescent marker, carboxyfluorescein succinimidyl ester (CFSE, marked with black arrows in FIG. 2). The circles are pillars in the restriction channel.
Example 2. […]

[4] = pre-incubated at 37° C. for 24 hours, placebo buffered saline, concentration not given

Row | Compound | IOP after injection of agent, lower than for placebo [1, 4] | EC50 [2] [nM] | other results
1 | CC(C)(C)C(=O)OCOP(=O)(COCCn1cnc2c(N)ncnc21)OCOC(=O)C(C)(C)C [adefovir dipivoxil] | up to 73% |  | 
2 | Nc1ncnc2c1ncn2CCOCP(=O)(O)O [adefovir, ((2-(6-amino-9H-purin-9-yl)ethoxy)methyl)phosphonic acid] |  | 169 | 
3 | CC(C)(C)NC(=O)N[C@H](C(=O)N1C[C@H]2[C@@H]([C@H]1C(=O)NC(CC1CCC1)C(=O)C(N)=O)C2(C)C)C(C)(C)C (some centres unmarked) [boceprevir] | up to 67% | 11300 | 
4 | CCCCCCCCCCCCCCCC[n+]1ccccc1 [cetylpyridinium chloride, 1-hexadecylpyridin-1-ium] |  |  | IOP after injection of agent, lower than for placebo ([1]; 37° C. 24 hours, cetylpyridinium chloride 43 mg/ml): ≤ 100%
5 | CC[C@@H](C(N)=O)N1CCCC1=O [levetiracetam] | up to 62% | 213 | 
6 | NC[C@@H]1OC(O[C@H]2[C@@H](O)[C@H](O[C@@H]3[C@@H](O)[C@H](N)C[C@H](N)[C@H]3OC3O[C@H](CN)[C@@H](O)[C@H](O)[C@H]3N)O[C@@H]2CO)[C@H](N)[C@@H](O)[C@@H]1O (some centres unmarked) [neomycin] |  |  | IOP after injection of agent, lower than for placebo ([1]; 37° C. 24 hours, neomycin sulfate 35 mg/ml): 72%
7 | COC(=O)N[C@H](C(=O)N1CCC[C@H]1C(=O)Nc1ccc([C@@H]2CC[C@@H](c3ccc(NC(=O)[C@@H]4CCCN4C(=O)[C@@H](NC(=O)OC)C(C)C)cc3)N2c2ccc(C(C)(C)C)cc2)cc1)C(C)C [ombitasvir] |  |  | IOP after injection of compound compared with placebo ([1]; 37° C. 24 hours, concentration not given): significantly higher than for placebo
8 | CCC(C)CCCCC(=O)NC(CCN)C(=O)NC(C(=O)NC(CCN)C(=O)NC1CCNC(=O)C(C(C)O)NC(=O)C(CCN)NC(=O)C(CCN)NC(=O)C(CC(C)C)NC(=O)C(Cc2ccccc2)NC(=O)C(CCN)NC1=O)C(C)O (centres unmarked) [polymyxin B sulfate] ({Octanoyl(6-Me)}-[Dab]T[Dab][Dab][Dab]FL[Dab][Dab]T; lactam 4-C; configuration not given here) |  | 4.3 | IOP after injection of agent, lower than for placebo ([1]; 37° C. 24 hours, Polymyxin B sulfate 10 mg/ml): 78%
9 | CC(C)N(CCNC(=O)CN1CCCC1=O)C(C)C [pramiracetam, N-[2-[di(propan-2-yl)amino]ethyl]-2-(2-oxopyrrolidin-1-yl)acetamide] | up to 44% |  | 
10 | CCCCCCCCCCCCOS(=O)(=O)[O-].[Na+] [sodium dodecyl sulfate] |  |  | IOP after injection of compound compared with placebo ([1]; 37° C. 24 hours, sodium dodecyl sulfate 24 mg/ml): significantly higher than for placebo
11 | CN(C)CCCN1c2ccccc2Sc2ccc(C(F)(F)F)cc21 [triflupromazine] | up to 40% |  | 
12 | H-TPPT-NH2 [rapastinel TFA] | up to 82% | 18 | 
13 | colistin sulfate | up to 97% | 0.36 | IOP after injection of agent, lower than for placebo [3]: up to 40%
14 | heparin sodium |  |  | IOP after injection of agent, lower than for placebo ([1]; 37° C. 24 hours, heparin sodium 10 mg/ml): 32%
